Legend:
[1] = Anti-McPhail test for anti-progestagenic activity; format: in vivo; conditions: Minimum Active Dose (MAD)
Protocol: Anti-progestagenic activity is determined by using an anti-McPhail test as known to the person skilled in the art and described, int.al., in Kloosterboer et al., Human Reproduction (1994), Volume 9, Supplement 1, pages 47-52.

orosomucoid = experiment: Binding to orosomucoid (as described in Philibert et al.); design: species or system human; conditions: for Binding affinity to orosomucoid (relative to RU 486): relative to RU 486 (100%)
Protocol: Of several anti-progestagens the binding to orosomucoid is determined as described in Philibert et al., Antihormones in Health and Disease (M.K. Agarwal, ed.), 1991, 19, 1-17.

| Binding affinity to orosomucoid (relative to RU 486) (orosomucoid) | binding to human orosomucoid (orosomucoid; result in words, said to indicate a relatively long half life) | Compound | minimal effective dose [1] [mg/kg] |
| --- | --- | --- | --- |
| 64% | – | C=C1CCO[C@]12CC[C@H]1[C@@H]3CCC4=CC(=O)CCC4=C3[C@@H](c3ccc(OC)cc3)C[C@@]12C | 1 |
| 82% | – | C=C1CCO[C@]12CC[C@H]1[C@@H]3CCC4=CC(=O)CCC4=C3[C@@H](c3ccc(SC)cc3)C[C@@]12C | > 1 |
| 222% | strong binding | C=C1CCO[C@]12CC[C@H]1[C@@H]3CCC4=CC(=O)CCC4=C3[C@@H](c3ccc(N(C)C)cc3)C[C@@]12C [Org 33245, (11β,17α)-17,23-epoxy-11-[(4-dimethylamino)phenyl]-19,24-dinorchola-4,9,20-trien-3-one] | 0.5 |
| 13,5% | – | C=C1CCO[C@]12CC[C@H]1[C@@H]3CCC4=CC(=O)CCC4=C3[C@@H](c3ccc(C(C)=O)cc3)C[C@@]12C | 8 |
